Test results taken from publication PMC5218480 (PLoS ONE, 2017).

Test system: MV-4-11 cells
Assay: Gene expression microarray analysis (Affymetrix PrimeView) and GSEA
Format: cell-based, human
Set-up: RFU PODN (11730768_x_at) / Fold change /veh PODN (11730768_x_at) / RFU LINC00158 (11744669_a_at) / Fold change /veh LINC00158 (11744669_a_at) / RFU DUSP10 (11751237_a_at) / Fold change /veh DUSP10 (11751237_a_at) / RFU ID3 (11757404_x_at) / Fold change /veh ID3 (11757404_x_at) / RFU PLEKHG5 (11737974_s_at) / Fold change /veh PLEKHG5 (11737974_s_at) / RFU LRRC4B (11730491_at) / Fold change /veh LRRC4B (11730491_at) / RFU GIMAP4 (11747438_a_at) / Fold change /veh GIMAP4 (11747438_a_at) / RFU KRT8 (11758183_x_at) / Fold change /veh KRT8 (11758183_x_at) / RFU CNN1 (11734310_a_at) / Fold change /veh CNN1 (11734310_a_at) / RFU VPS37D (11726825_at) / Fold change /veh VPS37D (11726825_at) / RFU C10orf10 (11716522_x_at) / Fold change /veh C10orf10 (11716522_x_at) / RFU KIR2DL2 /// KIR2DL4 /// KIR2DL5A /// KIR2DL5B /// KIR2DS1 /// KIR2DS2 /// KIR2DS3 /// KIR2DS4 /// KIR3DL3 /// KIR3DL3 /// KIR3DS1 (11738374_at) / Fold change /veh KIR2DL2 /// KIR2DL4 /// KIR2DL5A /// KIR2DL5B /// KIR2DS1 /// KIR2DS2 /// KIR2DS3 /// KIR2DS4 /// KIR3DL3 /// KIR3DL3 /// KIR3DS1 (11738374_at) / RFU C1QL1 (11718748_at) / Fold change /veh C1QL1 (11718748_at) / RFU TMPRSS4 (11747572_a_at) / Fold change /veh TMPRSS4 (11747572_a_at) / RFU HAMP (11756126_x_at) / Fold change /veh HAMP (11756126_x_at) / RFU RNFT2 (11725882_a_at) / Fold change /veh RNFT2 (11725882_a_at) / RFU NR4A2 (11747474_a_at) / Fold change /veh NR4A2 (11747474_a_at) / RFU ABCC12 (11746883_a_at) / Fold change /veh ABCC12 (11746883_a_at) / RFU TMEM136 (11760407_x_at) / Fold change /veh TMEM136 (11760407_x_at) / RFU CLDN22 /// WWC2 (11732394_at) / Fold change /veh CLDN22 /// WWC2 (11732394_at) / RFU HLA-DPB1 (11760878_x_at) / Fold change /veh HLA-DPB1 (11760878_x_at) / RFU SPINT1 (11716480_a_at) / Fold change /veh SPINT1 (11716480_a_at) / RFU GAP43 (11754022_s_at) / Fold change /veh GAP43 (11754022_s_at) / RFU A4GNT (11735810_at) / Fold change /veh A4GNT (11735810_at) / RFU PRB3 (11715151_x_at) / Fold change /veh PRB3 (11715151_x_at) / RFU TUBB4B (11761932_at) / Fold change /veh TUBB4B (11761932_at) / RFU CAPN14 (11732068_a_at) / Fold change /veh CAPN14 (11732068_a_at) / RFU TMCC2 (11721928_a_at) / Fold change /veh TMCC2 (11721928_a_at) / RFU IRGQ (11745062_a_at) / Fold change /veh IRGQ (11745062_a_at) / RFU FAM174B (11720279_a_at) / Fold change /veh FAM174B (11720279_a_at) / RFU TMPRSS4 (11748680_a_at) / Fold change /veh TMPRSS4 (11748680_a_at) / RFU FAM212B (11763350_a_at) / Fold change /veh FAM212B (11763350_a_at) / RFU PLEKHG5 (11743358_a_at) / Fold change /veh PLEKHG5 (11743358_a_at) / RFU ZSCAN30 (11745921_a_at) / Fold change /veh ZSCAN30 (11745921_a_at) / RFU CMKLR1 (11741424_a_at) / Fold change /veh CMKLR1 (11741424_a_at) / RFU LOC101060620 /// MAPK8IP1 (11723275_at) / Fold change /veh LOC101060620 /// MAPK8IP1 (11723275_at) / RFU SPTSSB (11747773_x_at) / Fold change /veh SPTSSB (11747773_x_at) / RFU PRSS12 (11739890_at) / Fold change /veh PRSS12 (11739890_at) / RFU BIN1 (11741810_x_at) / Fold change /veh BIN1 (11741810_x_at) / RFU WNT11 (11732464_a_at) / Fold change /veh WNT11 (11732464_a_at) / RFU C10orf10 (11716521_a_at) / Fold change /veh C10orf10 (11716521_a_at) / RFU C5orf56 (11738089_at) / Fold change /veh C5orf56 (11738089_at) / RFU CYB561 (11721691_x_at) / Fold change /veh CYB561 (11721691_x_at) / RFU ANKRD19P (11752326_a_at) / Fold change /veh ANKRD19P (11752326_a_at) / RFU OR2T12 /// OR2T33 /// OR2T8 (11738714_s_at) / Fold change /veh OR2T12 /// OR2T33 /// OR2T8 (11738714_s_at) / RFU VCAN (11748164_a_at) / Fold change /veh VCAN (11748164_a_at) / RFU JSRP1 (11732532_at) / Fold change /veh JSRP1 (11732532_at) / RFU KRTAP10-11 (11738290_x_at) / Fold change /veh KRTAP10-11 (11738290_x_at) / RFU MYO3A (11730013_a_at) / Fold change /veh MYO3A (11730013_a_at) / RFU EBF3 (11725865_a_at) / Fold change /veh EBF3 (11725865_a_at) / RFU CAMK2N1 (11719241_x_at) / Fold change /veh CAMK2N1 (11719241_x_at) / RFU C5orf56 (11738088_a_at) / Fold change /veh C5orf56 (11738088_a_at) / RFU OLFML3 (11715873_a_at) / Fold change /veh OLFML3 (11715873_a_at) / RFU LOC100653217 /// NTM (11731650_a_at) / Fold change /veh LOC100653217 /// NTM (11731650_a_at) / RFU MAPK11 (11762145_a_at) / Fold change /veh MAPK11 (11762145_a_at) / RFU FIZ1 (11724087_x_at) / Fold change /veh FIZ1 (11724087_x_at) / RFU OASL (11726364_x_at) / Fold change /veh OASL (11726364_x_at) / RFU SOX15 (11748057_x_at) / Fold change /veh SOX15 (11748057_x_at) / RFU CD79A (11719716_a_at) / Fold change /veh CD79A (11719716_a_at) / RFU HIST1H1D (11736915_at) / Fold change /veh HIST1H1D (11736915_at) / RFU CASKIN2 (11723855_a_at) / Fold change /veh CASKIN2 (11723855_a_at) / RFU LOC730098 (11760151_x_at) / Fold change /veh LOC730098 (11760151_x_at) / RFU OR4N2 (11742367_at) / Fold change /veh OR4N2 (11742367_at) / RFU PRRT2 (11749266_a_at) / Fold change /veh PRRT2 (11749266_a_at) / RFU SNX32 (11753110_a_at) / Fold change /veh SNX32 (11753110_a_at) / RFU CDHR5 (11726645_a_at) / Fold change /veh CDHR5 (11726645_a_at) / RFU RCAN1 (11760418_a_at) / Fold change /veh RCAN1 (11760418_a_at) / RFU FAM167A (11723789_a_at) / Fold change /veh FAM167A (11723789_a_at) / RFU FAM26E (11764081_at) / Fold change /veh FAM26E (11764081_at) / RFU ISYNA1 (11749810_s_at) / Fold change /veh ISYNA1 (11749810_s_at) / RFU ACY1 (11761880_at) / Fold change /veh ACY1 (11761880_at) / RFU 11764098_at / Fold change /veh 11764098_at / RFU SAMD14 (11745864_x_at) / Fold change /veh SAMD14 (11745864_x_at) / RFU NPB (11741838_a_at) / Fold change /veh NPB (11741838_a_at) / RFU TMPRSS6 (11731388_a_at) / Fold change /veh TMPRSS6 (11731388_a_at) / RFU KRTAP10-2 (11738614_at) / Fold change /veh KRTAP10-2 (11738614_at) / RFU ARHGAP8 /// PRR5-ARHGAP8 (11727945_x_at) / Fold change /veh ARHGAP8 /// PRR5-ARHGAP8 (11727945_x_at) / RFU KRTAP5-7 /// NADSYN1 (11734609_at) / Fold change /veh KRTAP5-7 /// NADSYN1 (11734609_at) / RFU RASL12 (11751679_a_at) / Fold change /veh RASL12 (11751679_a_at) / RFU CDKN2B (11736163_a_at) / Fold change /veh CDKN2B (11736163_a_at) / RFU PRF1 (11729649_at) / Fold change /veh PRF1 (11729649_at) / RFU, ZNF638 /// ZNF638-IT1 / Fold change vs veh, ZNF638 /// ZNF638-IT1 / RFU, PANK3 / Fold change vs veh, PANK3 / RFU, SH3YL1 / Fold change vs veh, SH3YL1 / RFU, ZEB2 / Fold change vs veh, ZEB2 / RFU, NRIP1 / Fold change vs veh, NRIP1 / RFU, PTTG1IP / Fold change vs veh, PTTG1IP / RFU, CAPN2 / Fold change vs veh, CAPN2 / RFU, MED14 / Fold change vs veh, MED14 / RFU, SNORA58 / Fold change vs veh, SNORA58 / RFU, C1orf63 / Fold change vs veh, C1orf63 / RFU, LRRFIP1 / Fold change vs veh, LRRFIP1 / RFU, NDUFAF7 / Fold change vs veh, NDUFAF7 / RFU, SLC12A2 / Fold change vs veh, SLC12A2 / RFU, IBTK / Fold change vs veh, IBTK / RFU, ESF1 / Fold change vs veh, ESF1 / Fold change vs veh, TMEM50B / RFU, TAOK1 / Fold change vs veh, TAOK1 / RFU, ACBD3 / Fold change vs veh, ACBD3 / RFU, TMA16 / Fold change vs veh, TMA16 / RFU, RWDD3 / Fold change vs veh, RWDD3 / RFU, BCAT1 / Fold change vs veh, BCAT1 / RFU, EDEM3 / Fold change vs veh, EDEM3 / RFU, TMEM33 / Fold change vs veh, TMEM33 / RFU, WDR75 / Fold change vs veh, WDR75 / RFU, AHCTF1 / Fold change vs veh, AHCTF1 / RFU, TFRC / Fold change vs veh, TFRC / RFU, ZDHHC17 / Fold change vs veh, ZDHHC17 / RFU, NOM1 / Fold change vs veh, NOM1 / RFU, ARL8B / Fold change vs veh, ARL8B / RFU, ZBTB11 / Fold change vs veh, ZBTB11 / RFU, TAMM41 / Fold change vs veh, TAMM41 / RFU, KIAA1704 /// LOC100996395 / Fold change vs veh, KIAA1704 /// LOC100996395 / RFU, ING1 / Fold change vs veh, ING1 / RFU, TRMT61B / Fold change vs veh, TRMT61B / RFU, FUBP3 / Fold change vs veh, FUBP3 / RFU, TP53 / Fold change vs veh, TP53 / RFU, TNKS2 / Fold change vs veh, TNKS2 / RFU, ZFP14 / Fold change vs veh, ZFP14 / RFU, ACTR2 / Fold change vs veh, ACTR2 / RFU, PPP3R1 / Fold change vs veh, PPP3R1 / RFU, PIK3R1 / Fold change vs veh, PIK3R1 / RFU, HNRNPA1 / Fold change vs veh, HNRNPA1 / RFU, RNF170 / Fold change vs veh, RNF170 / RFU, ZNF28 / Fold change vs veh, ZNF28 / RFU, RNGTT / Fold change vs veh, RNGTT / RFU, OGT / Fold change vs veh, OGT / RFU, BRD1 / Fold change vs veh, BRD1 / RFU, MARS / Fold change vs veh, MARS / RFU, ZNF655 / Fold change vs veh, ZNF655 / RFU, FAHD1 / Fold change vs veh, FAHD1 / RFU, BDP1 / Fold change vs veh, BDP1 / RFU, LRRCC1 / Fold change vs veh, LRRCC1 / RFU, ARID1A / Fold change vs veh, ARID1A / RFU, ZNF146 / Fold change vs veh, ZNF146 / RFU, ZNF330 / Fold change vs veh, ZNF330 / RFU, GPN3 / Fold change vs veh, GPN3 / RFU, C9orf123 / Fold change vs veh, C9orf123 / RFU, N4BP2L2 / Fold change vs veh, N4BP2L2 / RFU, ARFIP1 / Fold change vs veh, ARFIP1 / RFU, FAM179B / Fold change vs veh, FAM179B / RFU, BCL10 / Fold change vs veh, BCL10 / RFU, UHRF1BP1L / Fold change vs veh, UHRF1BP1L / RFU, BET1 / Fold change vs veh, BET1 / RFU, CNOT2 / Fold change vs veh, CNOT2 / RFU, ZNF268 / Fold change vs veh, ZNF268 / Fold change vs veh, ZNF507 / RFU, DGCR2 / Fold change vs veh, DGCR2 / RFU, WDSUB1 / Fold change vs veh, WDSUB1 / Fold change vs veh, HSP90B1 /// MIR3652 / RFU, ADSS / Fold change vs veh, ADSS / RFU, GK / Fold change vs veh, GK / RFU, ZNF148 / Fold change vs veh, ZNF148 / RFU, TAF9 / Fold change vs veh, TAF9 / RFU, SLC1A5 / Fold change vs veh, SLC1A5 / RFU, SLMO2 / Fold change vs veh, SLMO2 / RFU, ABCC4 / Fold change vs veh, ABCC4 / RFU, LOC101060439 /// RAP1B / Fold change vs veh, LOC101060439 /// RAP1B / RFU, RFX7 / Fold change vs veh, RFX7 / RFU, GTPBP10 / Fold change vs veh, GTPBP10 / RFU, CNEP1R1 / Fold change vs veh, CNEP1R1 / RFU, BIVM-ERCC5 /// ERCC5 / Fold change vs veh, BIVM-ERCC5 /// ERCC5 / RFU, ILF3 / Fold change vs veh, ILF3 / RFU 11762660_at / Fold change /veh 11762660_at / RFU VCAN (11757783_s_at) / Fold change /veh VCAN (11757783_s_at) / RFU DDX43 (11728927_at) / Fold change /veh DDX43 (11728927_at) / RFU KRT8 (11758188_x_at) / Fold change /veh KRT8 (11758188_x_at) / RFU NKD1 (11759106_at) / Fold change /veh NKD1 (11759106_at) / RFU SRD5A1 (11742802_a_at) / Fold change /veh SRD5A1 (11742802_a_at) / RFU TPSAB1 /// TPSB2 (11721975_s_at) / Fold change /veh TPSAB1 /// TPSB2 (11721975_s_at) / RFU GSTM3 (11746129_a_at) / Fold change /veh GSTM3 (11746129_a_at) / RFU IL23R (11737362_x_at) / Fold change /veh IL23R (11737362_x_at) / RFU TMEM51 (11727254_a_at) / Fold change /veh TMEM51 (11727254_a_at) / RFU PIWIL2 (11732686_x_at) / Fold change /veh PIWIL2 (11732686_x_at) / RFU ORM1 (11744905_x_at) / Fold change /veh ORM1 (11744905_x_at) / RFU CCDC152 (11743942_at) / Fold change /veh CCDC152 (11743942_at) / RFU ECM1 (11717891_a_at) / Fold change /veh ECM1 (11717891_a_at) / RFU IL23R (11748794_a_at) / Fold change /veh IL23R (11748794_a_at) / RFU TNFAIP8L3 (11732012_x_at) / Fold change /veh TNFAIP8L3 (11732012_x_at) / RFU MBOAT4 (11741988_at) / Fold change /veh MBOAT4 (11741988_at) / RFU 11764193_at / Fold change /veh 11764193_at / RFU TMEM53 (11763286_at) / Fold change /veh TMEM53 (11763286_at) / RFU MAGEB2 (11727129_at) / Fold change /veh MAGEB2 (11727129_at) / RFU TMEM200A (11744735_a_at) / Fold change /veh TMEM200A (11744735_a_at) / RFU CCDC152 (11751479_a_at) / Fold change /veh CCDC152 (11751479_a_at) / RFU FAM211A (11726209_a_at) / Fold change /veh FAM211A (11726209_a_at) / RFU RGS16 (11746705_a_at) / Fold change /veh RGS16 (11746705_a_at) / RFU VCAN (11755009_s_at) / Fold change /veh VCAN (11755009_s_at) / RFU RHOB (11743442_s_at) / Fold change /veh RHOB (11743442_s_at) / RFU RGS16 (11720943_a_at) / Fold change /veh RGS16 (11720943_a_at) / RFU RGS16 (11720944_at) / Fold change /veh RGS16 (11720944_at) / RFU, VPS4B / Fold change vs veh, VPS4B / RFU, CREB1 / Fold change vs veh, CREB1 / RFU, DNAJC13 / Fold change vs veh, DNAJC13 / RFU, GNAQ / Fold change vs veh, GNAQ / RFU, CDK5R1 / Fold change vs veh, CDK5R1 / RFU, ZRANB3 / Fold change vs veh, ZRANB3 / RFU, CUL4A / Fold change vs veh, CUL4A / RFU, CCNY / Fold change vs veh, CCNY / RFU, UFL1 / Fold change vs veh, UFL1 / RFU, COG3 / Fold change vs veh, COG3 / RFU, DIAPH2 / Fold change vs veh, DIAPH2 / RFU, SKA2 / Fold change vs veh, SKA2 / RFU, AFF3 / Fold change vs veh, AFF3 / RFU, LMF1 / Fold change vs veh, LMF1 / RFU, IPO11 / Fold change vs veh, IPO11 / RFU, DFFB / Fold change vs veh, DFFB / RFU, FOXP1 / Fold change vs veh, FOXP1 / RFU, CARD8 / Fold change vs veh, CARD8 / RFU, STRN3 / Fold change vs veh, STRN3 / RFU, ADK / Fold change vs veh, ADK / RFU, RASSF2 / Fold change vs veh, RASSF2 / RFU, WIPF1 / Fold change vs veh, WIPF1 / RFU, LARP1B / Fold change vs veh, LARP1B / RFU, RASA1 / Fold change vs veh, RASA1 / RFU, RB1 / Fold change vs veh, RB1 / RFU, PPFIA1 / Fold change vs veh, PPFIA1 / RFU, MAT2A / Fold change vs veh, MAT2A / RFU, CCT5 / Fold change vs veh, CCT5 / RFU, WDR92 / Fold change vs veh, WDR92 / RFU, CUX1 / Fold change vs veh, CUX1 / RFU, TTC7A / Fold change vs veh, TTC7A / RFU, TMEM135 / Fold change vs veh, TMEM135 / RFU, DEPTOR / Fold change vs veh, DEPTOR / RFU, CPM / Fold change vs veh, CPM / RFU, DNAJB6 / Fold change vs veh, DNAJB6 / RFU, CACNA2D3 / Fold change vs veh, CACNA2D3 / RFU, DTX4 / Fold change vs veh, DTX4 / RFU, TFCP2 / Fold change vs veh, TFCP2 / RFU, GMCL1 /// GMCL1P1 / Fold change vs veh, GMCL1 /// GMCL1P1 / RFU, AEBP2 / Fold change vs veh, AEBP2 / RFU, SNHG1 /// SNORD22 /// SNORD25 /// SNORD26 /// SNORD27 /// SNORD28 /// SNORD29 /// SNORD31 / Fold change vs veh, SNHG1 /// SNORD22 /// SNORD25 /// SNORD26 /// SNORD27 /// SNORD28 /// SNORD29 /// SNORD31 / Fold change (Aza/veh), C12orf56 (ProbeSet 11735607_a_at) / Fold change (ACY-1035/veh), C12orf56 (ProbeSet 11735607_a_at) / Fold change (Aza/veh), FGFR1OP (ProbeSet 11751329_s_at) / Fold change (ACY-1035/veh), FGFR1OP (ProbeSet 11751329_s_at) / Fold change (Aza/veh), VPS36 (ProbeSet 11739960_a_at) / Fold change (ACY-1035/veh), VPS36 (ProbeSet 11739960_a_at) / RFU SYPL1 (11715823_x_at) / Fold change /veh SYPL1 (11715823_x_at) / RFU IGFBP7 (11715501_s_at) / Fold change /veh IGFBP7 (11715501_s_at) / RFU REEP3 (11722064_at) / Fold change /veh REEP3 (11722064_at) / RFU IGLL1 (11728026_x_at) / Fold change /veh IGLL1 (11728026_x_at): dose or concentration left out as unconfirmed
Conditions: ProbeSet 11720270_a_at; LIST B

Nc1ccc(-c2cccs2)cc1NC(=O)c1ccc2c(c1)cc(C1CC1)n2CCN1CCOCC1 [ACY-1035]
Fold change vs veh, IBTK: 0.91
